# Test results as given in ChEMBL document CHEMBL4257223, “Histone demethylase inhibitors” (2016).
# Tests used:
# [1] = target: Lysine-specific demethylase 5B (Homo sapiens, UniProt Q9UGL1); assay: Inhibition of recombinant human N-terminal His-FLAG tagged JARID1B (2 to 751 residues) expressed in baculovirus infected sf9 cells using H3K4me3-biotin peptide as substrate after 30 mins in presence of alpha-ketoglutaric acid by LANCE TR-FRET assay
# [2] = target: T1, Lysine-specific demethylase 4C (Homo sapiens, UniProt Q9H3R0); assay: Inhibition of recombinant human N-terminal GST-tagged JMJD2C (2 to 372 residues) expressed in baculovirus infected sf9 cells using H3K9me3-biotin peptide as substrate after 30 mins in presence of alpha-ketoglutaric acid by LANCE TR-FRET assay
# T1 sequence (Q9H3R0 whole entry): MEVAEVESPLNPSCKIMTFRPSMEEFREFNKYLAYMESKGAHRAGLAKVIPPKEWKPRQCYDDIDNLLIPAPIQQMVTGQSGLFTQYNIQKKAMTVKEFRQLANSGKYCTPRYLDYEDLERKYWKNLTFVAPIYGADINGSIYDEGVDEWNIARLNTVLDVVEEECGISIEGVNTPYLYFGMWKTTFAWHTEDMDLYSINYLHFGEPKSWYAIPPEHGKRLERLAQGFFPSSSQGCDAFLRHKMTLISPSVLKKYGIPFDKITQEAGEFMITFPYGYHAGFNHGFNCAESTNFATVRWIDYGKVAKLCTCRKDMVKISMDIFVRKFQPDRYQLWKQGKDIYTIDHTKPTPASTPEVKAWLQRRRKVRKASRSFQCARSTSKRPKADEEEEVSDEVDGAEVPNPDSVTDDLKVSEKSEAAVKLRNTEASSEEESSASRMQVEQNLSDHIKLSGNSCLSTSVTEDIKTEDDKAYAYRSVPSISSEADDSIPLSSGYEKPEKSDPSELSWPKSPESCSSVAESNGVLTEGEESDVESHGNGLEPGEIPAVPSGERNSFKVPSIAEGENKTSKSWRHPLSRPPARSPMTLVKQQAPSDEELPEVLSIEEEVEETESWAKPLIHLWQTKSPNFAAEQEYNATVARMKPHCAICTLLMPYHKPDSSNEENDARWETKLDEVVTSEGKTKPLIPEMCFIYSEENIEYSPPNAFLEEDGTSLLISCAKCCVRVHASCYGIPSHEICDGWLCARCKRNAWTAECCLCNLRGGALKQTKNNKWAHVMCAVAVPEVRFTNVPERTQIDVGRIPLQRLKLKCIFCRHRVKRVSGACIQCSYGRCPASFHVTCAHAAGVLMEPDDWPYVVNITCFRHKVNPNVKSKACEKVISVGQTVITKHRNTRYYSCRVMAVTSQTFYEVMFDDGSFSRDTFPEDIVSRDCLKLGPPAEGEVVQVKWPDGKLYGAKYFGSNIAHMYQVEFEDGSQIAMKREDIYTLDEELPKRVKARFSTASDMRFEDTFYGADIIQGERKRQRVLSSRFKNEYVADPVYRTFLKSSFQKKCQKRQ
# [3] = target: T2, Lysine-specific demethylase 2B (Homo sapiens, UniProt Q8NHM5); assay: Inhibition of recombinant human C-terminal FLAG-tagged FBXL10 (1 to 650 residues) expressed in baculovirus infected sf9 cells using H3K36me2-biotin peptide as substrate after 30 mins in presence of alpha-ketoglutaric acid by AlphaScreen assay
# T2 sequence (Q8NHM5 whole entry): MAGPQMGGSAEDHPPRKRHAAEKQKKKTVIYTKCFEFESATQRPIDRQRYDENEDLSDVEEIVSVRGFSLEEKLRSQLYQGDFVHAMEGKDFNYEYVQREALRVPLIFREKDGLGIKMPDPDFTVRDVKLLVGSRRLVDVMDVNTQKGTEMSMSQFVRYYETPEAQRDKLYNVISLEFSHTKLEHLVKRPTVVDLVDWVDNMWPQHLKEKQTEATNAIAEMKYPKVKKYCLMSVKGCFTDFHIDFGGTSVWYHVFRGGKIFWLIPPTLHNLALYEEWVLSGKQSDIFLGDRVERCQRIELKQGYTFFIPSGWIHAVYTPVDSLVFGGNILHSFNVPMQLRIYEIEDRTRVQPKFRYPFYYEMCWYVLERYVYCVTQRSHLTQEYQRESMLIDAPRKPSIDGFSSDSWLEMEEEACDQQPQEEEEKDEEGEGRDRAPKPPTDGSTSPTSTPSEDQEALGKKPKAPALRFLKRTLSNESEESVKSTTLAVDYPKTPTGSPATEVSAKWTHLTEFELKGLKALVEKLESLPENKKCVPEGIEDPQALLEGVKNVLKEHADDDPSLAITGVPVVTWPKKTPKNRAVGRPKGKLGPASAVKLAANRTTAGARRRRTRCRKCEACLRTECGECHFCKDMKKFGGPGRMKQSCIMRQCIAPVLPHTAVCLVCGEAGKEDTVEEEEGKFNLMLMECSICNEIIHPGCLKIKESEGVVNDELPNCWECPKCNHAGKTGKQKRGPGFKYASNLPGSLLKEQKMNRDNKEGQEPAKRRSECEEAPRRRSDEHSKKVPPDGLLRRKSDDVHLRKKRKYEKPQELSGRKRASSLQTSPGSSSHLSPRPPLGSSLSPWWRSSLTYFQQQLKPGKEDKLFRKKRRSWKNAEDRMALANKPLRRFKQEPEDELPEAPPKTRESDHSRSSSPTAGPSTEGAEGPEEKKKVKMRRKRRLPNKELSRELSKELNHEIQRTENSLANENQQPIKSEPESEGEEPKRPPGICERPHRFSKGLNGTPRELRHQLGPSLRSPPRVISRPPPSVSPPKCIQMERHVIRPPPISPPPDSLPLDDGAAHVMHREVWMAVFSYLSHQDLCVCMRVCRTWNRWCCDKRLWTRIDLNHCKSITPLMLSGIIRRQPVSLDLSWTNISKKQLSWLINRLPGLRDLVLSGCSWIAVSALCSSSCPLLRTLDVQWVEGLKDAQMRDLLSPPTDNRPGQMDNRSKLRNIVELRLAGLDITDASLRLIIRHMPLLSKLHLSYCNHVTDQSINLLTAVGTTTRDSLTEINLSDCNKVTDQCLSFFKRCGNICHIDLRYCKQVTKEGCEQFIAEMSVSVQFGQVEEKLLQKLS
# [4] = target: Lysine-specific demethylase 5A/5B (Homo sapiens, UniProt P29375+Q9UGL1); assay: Inhibition of KDM5A/KDM5B in human ZR-75-1 cells assessed as increase in H3K4me3 level after 72 hrs by fluorometric immunoblot analysis; format: cell-based
# Chain of Lysine-specific demethylase 5B (Q9UGL1 whole entry, the tested form may be a part): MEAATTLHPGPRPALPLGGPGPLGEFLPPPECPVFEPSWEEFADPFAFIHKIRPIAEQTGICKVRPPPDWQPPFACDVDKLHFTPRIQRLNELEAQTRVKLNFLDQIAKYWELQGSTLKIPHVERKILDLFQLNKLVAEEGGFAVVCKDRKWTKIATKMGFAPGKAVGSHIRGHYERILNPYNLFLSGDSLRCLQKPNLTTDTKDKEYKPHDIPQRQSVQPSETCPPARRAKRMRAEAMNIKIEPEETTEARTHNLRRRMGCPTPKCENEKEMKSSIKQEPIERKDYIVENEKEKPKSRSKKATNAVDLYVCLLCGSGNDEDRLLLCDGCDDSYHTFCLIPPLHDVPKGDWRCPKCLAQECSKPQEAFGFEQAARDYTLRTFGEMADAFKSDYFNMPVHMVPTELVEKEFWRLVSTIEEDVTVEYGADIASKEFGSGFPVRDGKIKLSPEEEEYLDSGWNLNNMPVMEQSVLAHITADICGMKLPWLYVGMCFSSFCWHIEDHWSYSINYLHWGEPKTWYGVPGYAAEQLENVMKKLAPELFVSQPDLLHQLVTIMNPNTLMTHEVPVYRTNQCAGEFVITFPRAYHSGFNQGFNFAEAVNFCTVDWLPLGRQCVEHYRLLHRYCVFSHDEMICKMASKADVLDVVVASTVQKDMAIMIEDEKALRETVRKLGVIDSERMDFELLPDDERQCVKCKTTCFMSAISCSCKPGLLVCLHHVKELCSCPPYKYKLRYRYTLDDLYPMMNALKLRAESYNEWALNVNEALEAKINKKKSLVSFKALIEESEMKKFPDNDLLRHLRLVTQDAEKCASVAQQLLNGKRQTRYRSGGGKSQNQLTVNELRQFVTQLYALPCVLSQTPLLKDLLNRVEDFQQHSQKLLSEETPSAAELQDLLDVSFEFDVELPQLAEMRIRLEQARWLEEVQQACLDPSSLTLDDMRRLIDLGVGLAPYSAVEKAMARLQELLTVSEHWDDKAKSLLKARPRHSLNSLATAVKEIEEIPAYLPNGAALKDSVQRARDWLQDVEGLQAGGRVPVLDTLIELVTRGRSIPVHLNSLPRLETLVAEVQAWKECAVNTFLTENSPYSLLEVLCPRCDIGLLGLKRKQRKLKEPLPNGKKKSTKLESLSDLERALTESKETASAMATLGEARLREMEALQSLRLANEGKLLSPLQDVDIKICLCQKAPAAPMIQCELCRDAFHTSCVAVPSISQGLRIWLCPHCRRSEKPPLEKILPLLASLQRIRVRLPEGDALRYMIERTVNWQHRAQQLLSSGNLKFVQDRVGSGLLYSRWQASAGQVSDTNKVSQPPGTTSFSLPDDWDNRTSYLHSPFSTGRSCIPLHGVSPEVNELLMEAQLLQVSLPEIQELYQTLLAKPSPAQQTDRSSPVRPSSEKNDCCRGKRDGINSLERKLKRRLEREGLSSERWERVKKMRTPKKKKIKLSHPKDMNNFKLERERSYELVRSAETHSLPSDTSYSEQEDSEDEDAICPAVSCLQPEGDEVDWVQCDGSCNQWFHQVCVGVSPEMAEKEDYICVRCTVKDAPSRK
compound,measurement,setting,value
COc1ccc(-c2c(-c3cc(C(=O)O)ccn3)ncn2C)cc1,IC50,[1],100 to 1000 nM
same,IC50,[2],1000 to 10000 nM
same,IC50,[3],100 to 1000 nM
same,IC50,[4],1000 to 10000 nM
